Literature values in patent US20100055177A1, “MODIFIED RELEASE COMPOSITION OF LEVETIRACETAM AND PROCESS FOR THE PREPARATION THEREOF” (priority 2008, published 2010).

water solubility: about 1.04 g/ml
SMILES: CC[C@@H](C(N)=O)N1CCCC1=O [levetiracetam, (−)-(S)-(alpha)-ethyl-2-oxo-1-pyrrolidine acetamide]
